Assay: xn = mol fraction of the nth substance listed
Settings: 100 kPa, Liquid; for viscosity: Capillary tube (Ostwald / Ubbelohde) method; for speed of sound: Frequency=2 MHz, Linear variable-path acoustic interferometer; for mass density: Vibrating tube method

Nc1cccc(Cl)c1 [3-chlorobenzenamine] + O=[N+]([O-])c1ccccc1
Settings	mass density [kg/m3]	speed of sound [m/s]	viscosity [mPa·s]
303.15 K, x1 = 0.0812	1194.97	1445	1.938
303.15 K, x1 = 0.1725	1196.57	1452.6	2.253
303.15 K, x1 = 0.2623	1198.01	1460	2.537
303.15 K, x1 = 0.3725	1199.59	1468.9	2.863
303.15 K, x1 = 0.4854	1201	1478	3.179
303.15 K, x1 = 0.5896	1202.12	1486.4	3.456
303.15 K, x1 = 0.6785	1202.96	1493.5	3.679
303.15 K, x1 = 0.7825	1203.81	1501.6	3.915
303.15 K, x1 = 0.8905	1204.59	1509.8	4.117
303.15 K, x1 = 1	1205.32	1517.5	4.255
308.15 K, x1 = 0.0812	1189.92	1427.2	1.787
308.15 K, x1 = 0.1725	1191.59	1435	2.079
308.15 K, x1 = 0.2623	1193.07	1442.5	2.34
308.15 K, x1 = 0.3725	1194.69	1451.6	2.637
308.15 K, x1 = 0.4854	1196.16	1460.9	2.922
308.15 K, x1 = 0.5896	1197.35	1469.4	3.168
308.15 K, x1 = 0.6785	1198.25	1476.7	3.362
308.15 K, x1 = 0.7825	1199.18	1485	3.565
308.15 K, x1 = 0.8905	1200.03	1493.4	3.734
308.15 K, x1 = 1	1200.75	1501.2	3.842
313.15 K, x1 = 0.0812	1185.37	1409.1	1.666
313.15 K, x1 = 0.1725	1187.04	1416.6	1.935
313.15 K, x1 = 0.2623	1188.49	1423.8	2.167
313.15 K, x1 = 0.3725	1190.08	1432.6	2.427
313.15 K, x1 = 0.4854	1191.52	1441.5	2.674
313.15 K, x1 = 0.5896	1192.7	1449.8	2.889
313.15 K, x1 = 0.6785	1193.61	1456.8	3.059
313.15 K, x1 = 0.7825	1194.55	1465	3.234
313.15 K, x1 = 0.8905	1195.37	1473	3.369
313.15 K, x1 = 1	1196.02	1480.3	3.43
318.15 K, x1 = 0.0812	1179.19	1392.1	1.542
318.15 K, x1 = 0.1725	1181	1399.7	1.787
318.15 K, x1 = 0.2623	1182.58	1407	1.992
318.15 K, x1 = 0.3725	1184.35	1415.8	2.218
318.15 K, x1 = 0.4854	1185.97	1424.9	2.43
318.15 K, x1 = 0.5896	1187.32	1433.4	2.615
318.15 K, x1 = 0.6785	1188.37	1440.7	2.755
318.15 K, x1 = 0.7825	1189.5	1449.1	2.902
318.15 K, x1 = 0.8905	1190.49	1457.3	3.004
318.15 K, x1 = 1	1191.25	1464.8	3.022
